Values quoted from earlier work, collected in PMC5111365 (The Analyst, 2016).
No end group written: not given here. *: point of attachment. 5FAM = O=C1OC2(c3ccc(O)cc3Oc3cc(O)ccc32)c2ccc(C(=O)*)cc21

Tests used:
[1] = 3 mg mL^-1 total protein, data from previous work
[2] = molecular target: Abl-1 human recombinant protein (Homo sapiens, UniProt P00519); conditions: 12 nM kinase; data from previous work
Abl-1 human recombinant protein, sequence (P00519 whole entry): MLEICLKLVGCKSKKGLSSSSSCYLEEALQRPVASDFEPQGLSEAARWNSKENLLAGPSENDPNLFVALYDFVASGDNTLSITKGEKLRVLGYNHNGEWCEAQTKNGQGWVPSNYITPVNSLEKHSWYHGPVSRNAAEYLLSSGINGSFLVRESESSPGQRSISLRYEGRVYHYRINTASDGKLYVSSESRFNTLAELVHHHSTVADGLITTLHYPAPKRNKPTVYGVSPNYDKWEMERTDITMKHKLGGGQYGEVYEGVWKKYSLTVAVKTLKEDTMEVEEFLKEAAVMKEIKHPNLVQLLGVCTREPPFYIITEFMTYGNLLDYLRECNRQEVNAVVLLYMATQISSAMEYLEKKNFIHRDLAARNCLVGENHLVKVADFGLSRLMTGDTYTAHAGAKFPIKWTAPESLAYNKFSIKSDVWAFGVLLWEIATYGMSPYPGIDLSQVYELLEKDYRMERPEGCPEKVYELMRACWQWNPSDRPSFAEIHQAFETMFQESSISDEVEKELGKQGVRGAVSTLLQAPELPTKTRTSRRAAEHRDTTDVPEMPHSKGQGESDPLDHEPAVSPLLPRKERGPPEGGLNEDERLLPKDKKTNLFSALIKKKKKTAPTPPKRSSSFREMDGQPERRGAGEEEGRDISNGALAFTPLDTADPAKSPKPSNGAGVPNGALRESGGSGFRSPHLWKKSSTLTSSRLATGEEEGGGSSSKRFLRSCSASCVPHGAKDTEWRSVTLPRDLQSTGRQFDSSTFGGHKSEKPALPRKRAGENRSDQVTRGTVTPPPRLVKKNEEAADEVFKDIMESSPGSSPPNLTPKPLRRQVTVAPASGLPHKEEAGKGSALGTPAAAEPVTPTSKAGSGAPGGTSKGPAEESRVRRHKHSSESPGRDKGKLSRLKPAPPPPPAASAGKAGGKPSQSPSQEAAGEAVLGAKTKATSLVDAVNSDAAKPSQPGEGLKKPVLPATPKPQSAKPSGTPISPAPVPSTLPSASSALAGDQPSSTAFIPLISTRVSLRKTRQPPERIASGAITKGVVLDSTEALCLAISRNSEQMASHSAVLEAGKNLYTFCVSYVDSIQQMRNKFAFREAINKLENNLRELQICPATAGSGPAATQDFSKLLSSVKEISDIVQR

- t1/2, time at which 50% of the peptide was degraded in the cytosolic lysate [1]: 1.3 min
- t50% P, time required for 50% of the peptide to be phosphorylated by Abl-1 kinase [2]: 190 min
Substance: 5FAM-GGAYAAPFKKKA [III-67B]
